In publication doi:10.1101/496141v1 (bioRxiv, 2018):

Legend:
Type in all cases: in vivo, mouse
Tg2576 mice = assay: Contextual fear conditioning in Tg2576 mice; settings: 7 months old mice, 20 mg/kg i.p. 1h before training; vs Tg2576 SCR
Hdh^Q111/+ knock-in mice = assay: Hdh Q111/+ knock-in mice: striatal caspase-3 and pERK; settings: 20 mg/kg i.p. for 8 days; twice a day, 7 days; vs SCR
[1] = test system: ERK phosphorylation (pERK); assay: pERK positive cells in dorsal striatum after i.p. RB5; settings: single dose 20 mg/kg i.p., n=5 mice/group, vs SCR at 1h

With “GRKKRRQRRRPPQGGGGGEPRRTEGVGPGVPGEVEMVKGQPFDV [RB5]” the “contextual fear memory impairment in Tg2576 mice (% of time spent freezing, 24h)” value (Tg2576 mice) was “fully rescued”, the “caspase-3 levels in striatum of Hdh^Q111/+ mice” value (Hdh^Q111/+ knock-in mice) was “diminished caspase-3 levels” and the “duration of enhancement of ERK phosphorylation in dorsal striatum” value [1] was “up to 6 h”.
